This is an account of results in ChEMBL document CHEMBL2417420, “Autotaxin inhibition: development and application of computational tools to identify site-selective lead compounds” (Bioorg Med Chem, 2013).

The assay deals with Autotaxin (Homo sapiens, UniProt Q13822). The assay can be described thus: Inhibition of C-terminal FLAG-tagged human recombinant autotaxin using synthetic substrate FS-3 at 10 uM measured every 2 mins by FRET assay relative to control.
As usually defined, the inhibition is the drop in the measured response relative to a control, in per cent. `CCCCCCCCCCCCCCCCS(=O)(=O)c1ccc(S(=O)(=O)N/N=c2\sc3ccc(S(=O)(=O)O)cc3n2C)cc1C(=O)O`: the inhibition came to 20%.

`CC[C@@H]1CN2CCc3cc(OC)c(OC)cc3[C@@H]2C[C@@H]1C[C@@H]1c2cc(OC)c(OC)cc2CCN1C(=O)COCC(=O)N1CCc2cc(OC)c(OC)cc2[C@@H]1C[C@H]1C[C@H]2c3cc(OC)c(OC)cc3CCN2C[C@@H]1CC`: the inhibition worked out at 0%.

Take `CC(c1cc2ccccc2o1)N1CCN(C(=O)CCSc2ccc3ccccc3c2)CC1` (stereo not drawn): the inhibition was 20%.

`O=C(NCCOCCO)c1ccc2c(c1)nc(CN1CCC(N3CCCC3)CC1)n2CC1CC1`: the inhibition was found to be 10%.

With `COc1ccc(OC)c(NC(=S)N2CCn3cccc3C2c2ccc(OC)c(OC)c2)c1` (stereo not drawn), the inhibition came out at 30%.

With `O=C(O)c1cccc(/N=C2\S/C(=C\c3ccc(-c4cccc(Cl)c4)o3)C(=O)N2Cc2ccccc2)c1`, the inhibition came to 0%.

On to `COc1cc(/C=N/NC(=O)c2ccc(CN3C(=O)c4cccc5cccc3c45)cc2)cc(Br)c1O`, for which the inhibition turned out to be 10%.

`CCN(CCCCOC(=O)c1ccc(OC)c(OC)c1)C(C)Cc1ccc(OC)cc1` (stereo not drawn): the inhibition came to 10%.

Consider `CCN(C(=O)c1ccc(/C=C2\S/C(=N\c3ccccc3)N([C@H](C)C(=O)O)C2=O)cc1)c1ccccc1`, for which the inhibition came out at 20%.

`N#CC1=C(SCC(=O)Nc2ccc(Br)cc2)NC(=O)CC1c1ccc(O)cc1` (stereo not drawn): the inhibition amounted to 10%.

As to `Cc1ccc2[nH]c3nc(SCC(=O)NCc4ccc5c(c4)OCO5)nnc3c2c1`, the inhibition came to 10%.

Consider `COc1ccc(OC)c(C(=O)NC(CC(=O)NCCc2c[nH]c3ccccc23)c2ccccc2)c1` (stereo not drawn), for which the inhibition was found to be 20%.

As for `CC(C)Cc1ccc(C(C)C(=O)N2CCN(c3ncccc3C(=O)NC(C(N)=O)C(C)O)CC2C)cc1` (stereo not drawn), the inhibition amounted to 30%.

For `COc1ccc(C2CC(=O)NC(SCC(=O)Nc3ccc(I)cc3)=C2C#N)cc1OC` (stereo not drawn), the inhibition worked out at 20%.

For the molecule `CC(C)c1ccc(OCC(=O)N2CCC(CCCC3CCN(c4ccc(C(=O)N5CCCC5C(N)=O)cn4)CC3)CC2)cc1` (stereo not drawn), the inhibition is 0%.

Regarding `O=C(O)[C@@H](Cc1ccc(O)cc1)/N=C1\S/C(=C\c2ccc(-c3cccc(Cl)c3)o2)C(=O)N1c1ccccc1`, the inhibition stood at 30%.

Turning to `N#CC1CCCC(NC(=O)c2cccc(S(=O)(=O)Nc3ccc(Br)cc3)c2)C1` (stereo not drawn), the inhibition is 0%.

On to `COCCNS(=O)(=O)c1ccc2c(c1)NC(=O)C(Cc1ccccc1)N2C(=O)CNCc1ccc(OC)cc1` (stereo not drawn), for which the inhibition was found to be 30%.

Turning to `O=C(O)CN1C(=O)/C(=C\c2ccc(OCc3cccc4ccccc34)cc2)SC1=S`, the inhibition was 30%.

Take `COc1ccc(CCn2c(-c3cc(OC)c(OC)c(OC)c3)nc3cc(C(=O)NCCOCCO)ccc32)cc1OC`: the inhibition was found to be 20%.

Take `CCCCOc1ccc(-c2nc3cc(C(=O)NCc4cc(F)ccc4F)ccc3n2CCc2ccc(OC)c(OC)c2)cc1`: the inhibition came out at 30%.

Regarding `CC(CNC(=O)c1cc(-c2ccoc2)nc2ccccc12)C(=O)NCCNc1ccccc1` (stereo not drawn), the inhibition stood at 10%.

`COc1ccccc1/C=C1\SC(=O)N(CCC(=O)N2c3ccccc3Sc3ccccc32)C1=O`: the inhibition was 20%.

`CCCOC(=O)c1ccc(/N=C/c2cccc(OC)c2O)cc1`: the inhibition amounted to 10%.

Regarding `CC1CN(c2ccc(C(=O)NC(Cc3ccc(O)cc3)C(N)=O)cn2)CCN1C(=O)C(N)Cc1ccccc1` (stereo not drawn), the inhibition was 10%.

Regarding `O=C(O)c1cc(-c2ccc(/C=C3/SC(=S)N(CCc4ccccc4)C3=O)o2)ccc1Cl`, the inhibition was determined as 20%.

In the case of `CCn1c(CN2CCc3ccccc3C2)nc2cc(C(=O)NCC(O)CO)ccc21` (stereo not drawn), the inhibition is 20%.

Turning to `Cc1cccc(S(=O)(=O)N2CCn3nc(C4CCC(CNC(=O)CC(C)C)CC4)cc32)c1` (stereo not drawn), the inhibition was found to be 20%.

`Cc1ccc(-c2ccc(-c3nnc(CCCC(=O)NC(CO)CO)o3)cc2)cc1`: the inhibition is 10%.

Regarding `COc1ccc(CCn2c(CCc3ccccc3)nc3cc(C(=O)NCCOCCO)ccc32)cc1OC`, the inhibition was found to be 10%.

In the case of `COc1ccc(-c2cc(C(=O)NC(C(=O)NCCCCCCO)C(C)C)c3ccccc3n2)cc1C` (stereo not drawn), the inhibition is 10%.

Consider `CC(CNC(=O)CCCn1ncn2c(cc3occc32)c1=O)c1ccccc1` (stereo not drawn), for which the inhibition was 10%.

As for `O=C(NC(S)Nc1ccc2oc(-c3ccc(-c4ccccc4)cc3)nc2c1)c1ccc([N+](=O)[O-])cc1` (stereo not drawn), the inhibition was found to be 10%.

As for `Cc1cc2cc(C#N)c(SCC(=O)Nc3ccc(N(C)C)cc3)nc2cc1C`, the inhibition was determined as 0%.

With `O=C1/C(=C\c2cccc(OCc3ccccc3F)c2)SC(=S)N1Cc1ccccc1`, the inhibition is 10%.

As to `CCc1nc2ccc(C(=O)N3CCN(C(C)=O)CC3)cn2c1N(C)C(=O)COc1ccccc1`, the inhibition was determined as 0%.

For the molecule `Cc1ccccc1C(=O)NCC1CCC(c2cc3n(n2)CCN3C(=O)COc2ccccc2)CC1` (stereo not drawn), the inhibition came to 30%.

Take `Cc1ccc(NC(=O)CN2C(=O)N/C(=C/c3ccc(OCc4cccc([N+](=O)[O-])c4)cc3)C2=O)cc1`: the inhibition is 0%.

Consider `CC1CCC(C(C)C)C(OCC(=O)N2CCCN(c3ncccc3C(=O)N3CCCC3C(N)=O)CC2)C1` (stereo not drawn), for which the inhibition worked out at 20%.

Turning to `COc1cc(/C=N/NC(=O)c2cc(-c3ccc(OC)c(OC)c3)n[nH]2)ccc1O`, the inhibition was 10%.

Turning to `CC(C)c1ccc(S(=O)(=O)N2CCn3nc(C4CCC(CNC(=O)c5ccco5)CC4)cc32)cc1` (stereo not drawn), the inhibition was found to be 20%.

On to `COc1ccc(-c2cc(C(=O)NC(C)(C)C(=O)NCCCOC(C)C)c3ccccc3n2)cc1C`, for which the inhibition is 20%.

As for `COc1ccc(C2CC(=O)NC(SCC(=O)Nc3ccc(I)cc3)=C2C#N)cc1` (stereo not drawn), the inhibition amounted to 20%.

Regarding `COc1ccc(CNC(=O)c2cc(-c3ccc(OC)c(OC)c3)nc3ccc(CNC(=O)c4cccc(Cl)c4)cc23)c(OC)c1`, the inhibition was determined as 20%.

Turning to `N#CC1=C(SCC(=O)Nc2ccc(Br)cc2)NC(=O)CC1c1cccc(O)c1` (stereo not drawn), the inhibition was determined as 30%.

Turning to `O=C1/C(=C/c2cccc(Oc3ccccc3)c2)SC(=S)N1Cc1ccccc1`, the inhibition was found to be 20%.

For `COc1ccccc1C(COc1ccccc1C)NCCC(=O)N(CC(N)=O)Cc1ccc(C)cc1` (stereo not drawn), the inhibition amounted to 20%.

On to `CCCCCCOc1ccc(/C=N/c2ccc(-c3ccc(/N=C/c4ccc(OCCCCCC)c(OC)c4)cc3)cc2)cc1CC`, for which the inhibition is 79.1%.

On to `CCCCOc1ccc(-c2nc3cc(C(=O)NCCOCCO)ccc3n2Cc2ccco2)cc1`, for which the inhibition worked out at 10%.

Consider `CCCCOc1ccc(-c2nc3cc(C(=O)NCc4ccc(C(F)(F)F)cc4)ccc3n2CCc2ccc(OC)c(OC)c2)cc1`, for which the inhibition came to 30%.

On to `CC(O)C(NC(=O)c1ccc(N2CCN(C(=O)Cc3ccc(O)cc3)CC2)nc1)C(N)=O` (stereo not drawn), for which the inhibition came to 10%.

For `COCCCn1c(CN2CCN(c3ccccc3F)CC2)nc2cc(C(=O)NCC(O)CO)ccc21` (stereo not drawn), the inhibition was 10%.

For `CC(O)C(NC(=O)c1cccnc1N1CCC(CCCC2CCN(C(=O)CCC(=O)c3ccccc3)CC2)CC1)C(N)=O` (stereo not drawn), the inhibition turned out to be 30%.

With `O=C(NCC(O)CO)c1ccc2c(c1)nc(COCc1ccccc1)n2Cc1ccco1` (stereo not drawn), the inhibition was found to be 30%.

As to `O=C(Cc1ccccc1OC(=O)Cn1c(=O)sc2ccccc21)Cn1c(=O)sc2ccccc21`, the inhibition stood at 0%.

As for `CCOc1cc(CC2SC(N3CCN(C4=NC(=O)C(Cc5ccc(O)c(OCC)c5)S4)CC3)=NC2=O)ccc1O` (stereo not drawn), the inhibition came out at 30%.

In the case of `COc1ccc(-c2cc(C(=O)NC(C)(C)C(=O)NCCN(C(C)C)C(C)C)c3ccccc3n2)cc1`, the inhibition turned out to be 0%.

Regarding `COc1cccc(CNC2CC(=O)N(c3ccc(N4C(=O)CC(NCc5cccc(OC)c5OC)C4=O)cc3)C2=O)c1OC` (stereo not drawn), the inhibition is 10%.

As for `CC(=O)N1CCN(C(=O)c2ccc3nc(C)c(N(C)C(=O)CCc4ccccc4)n3c2)CC1`, the inhibition came out at 0%.

On to `O=[N+]([O-])c1cc(/C=N/c2ccc3nc(SCc4ccc(Br)cc4)sc3c2)ccc1O`, for which the inhibition was determined as 0%.

As to `C#CCN1C(=O)S/C(=C/c2ccc(OCc3ccc4ccccc4c3)c(OCC)c2)C1=O`, the inhibition is 0%.

Regarding `COc1ccc(CCn2c(C(C)Oc3ccccc3)nc3cc(C(=O)NCCOCCO)ccc32)cc1OC` (stereo not drawn), the inhibition came to 20%.

With `O=C(O)CN1C(=O)/C(=C/c2cccc(Oc3ccccc3)c2)S/C1=N\c1ccccc1`, the inhibition was found to be 0%.

With `CC(O)C(NC(=O)c1cccnc1N1CCN(C(=O)Cc2ccc(-c3ccccc3)cc2)CC1)C(N)=O` (stereo not drawn), the inhibition is 20%.

In the case of `O=C1c2ccccc2-c2ccc(S(=O)(=O)Nc3ccc(S(=O)(=O)Nc4nccs4)cc3)cc21`, the inhibition came to 10%.

For the molecule `N#CC1=C(SCC(=O)N(c2ccccc2)c2ccccc2)NC(=O)CC1c1cc(Br)c(O)c(Br)c1` (stereo not drawn), the inhibition amounted to 10%.

`CCN(C(=O)c1cccc(/C=C2\SC(=S)N([C@H](Cc3ccccc3)C(=O)O)C2=O)c1)c1ccccc1`: the inhibition came to 30%.

Consider `Cc1[nH]c2ccccc2c1CC(=O)N1CCN(C(=O)c2ccccc2C(=O)c2ccc(Cl)cc2)CC1`, for which the inhibition was 30%.

`O=C1/C(=C\c2cc(Cc3ccccc3)ccc2O)SC(=S)N1Cc1ccccc1`: the inhibition is 10%.

In the case of `CC(O)C(NC(=O)c1cccnc1N1CCN(C(=O)CCC(=O)c2ccccc2)CC1)C(N)=O` (stereo not drawn), the inhibition was 10%.

Regarding `CCOC(=O)C(=O)NCC1CCC(c2cc3n(n2)CCN3S(=O)(=O)c2cccc(Cl)c2)CC1` (stereo not drawn), the inhibition came to 20%.

`CCCCCCOc1ccc(/C=N/c2ccc(C)cc2)cc1`: the inhibition is 0%.

As for `O=C(NCc1ccc(NC(=O)c2cn(Cc3ccccc3)c3ccccc23)cc1)c1cnc2cc(C(F)(F)F)ccc2c1O`, the inhibition worked out at 0%.

For the molecule `CCOC(=O)c1sc(NC(=O)c2ccc(Oc3ccc(C(=O)Nc4sc(C(=O)OCC)c(C)c4C(=O)OCC)cc3)cc2)c(C(=O)OCC)c1C`, the inhibition came to 10%.

Take `COc1cc(C2C(C#N)=C(SCC(=O)Nc3cccc4ccccc34)NC3=C2C(=O)CCC3)ccc1O` (stereo not drawn): the inhibition was 30%.

`COc1cc(C2CC(=O)NC(SCc3ccccc3)=C2C#N)ccc1O` (stereo not drawn): the inhibition worked out at 30%.

For `CC(CC(=O)N1CCCN(c2ccc(C(=O)NC(C(N)=O)C(C)O)cn2)CC1)c1ccccc1` (stereo not drawn), the inhibition was 0%.

As for `COc1ccc(CCn2c(COc3ccccc3)nc3cc(C(=O)NCC(O)CO)ccc32)cc1OC` (stereo not drawn), the inhibition stood at 10%.
